Experimental data from ChEMBL document CHEMBL4813981, “Synthesis and in vitro antibacterial activity of new aminothiazole-oximepiperidone cephalosporins” (2021).
Converted amounts (≈) assume the structure as drawn.

Legend:
Type in all cases: functional
[1] = tested on: Klebsiella pneumoniae; assay: Antibacterial activity against Carbapenem- resistant Klebsiella pneumoniae KR 15-5 assessed as reduction in bacterial growth
[2] = tested on: Klebsiella pneumoniae; assay: Antibacterial activity against Carbapenem- resistant Klebsiella pneumoniae KR 15-6 assessed as reduction in bacterial growth
[3] = tested on: Klebsiella pneumoniae; assay: Antibacterial activity against Carbapenem- resistant Klebsiella pneumoniae KR 15-11 assessed as reduction in bacterial growth
[4] = tested on: Klebsiella pneumoniae; assay: Antibacterial activity against Carbapenem- sensitive Klebsiella pneumoniae 17-7 overexpressing extended spectrum beta-lactamases assessed as reduction in bacterial growth
[5] = tested on: Acinetobacter baumannii; assay: Antibacterial activity against Carbapenem- resistant Acinetobacter baumannii 17-10 assessed as reduction in bacterial growth
[6] = tested on: Acinetobacter baumannii; assay: Antibacterial activity against Carbapenem- resistant Acinetobacter baumannii 17-9 assessed as reduction in bacterial growth
[7] = tested on: Klebsiella pneumoniae; assay: Antibacterial activity against Carbapenem- sensitive Klebsiella pneumoniae 17-4 overexpressing extended spectrum beta-lactamases assessed as reduction in bacterial growth
[8] = tested on: Escherichia coli; assay: Antibacterial activity against ESBLs negative Carbapenem-sensitive Escherichia coli 17-16 assessed as reduction in bacterial growth
[9] = tested on: Enterobacter cloacae; assay: Antibacterial activity against Enterobacter cloacae 17-2 assessed as reduction in bacterial growth
[10] = tested on: Escherichia coli; assay: Antibacterial activity against ESBLs positive Carbapenem-sensitive Escherichia coli 17-11 assessed as reduction in bacterial growth
[11] = tested on: Klebsiella pneumoniae; assay: Antibacterial activity against ESBLs negative Carbapenem-sensitive Klebsiella pneumoniae 17-20 assessed as reduction in bacterial growth
[12] = tested on: Acinetobacter baumannii; assay: Antibacterial activity against Carbapenem- resistant Acinetobacter baumannii 17-2 assessed as reduction in bacterial growth
[13] = tested on: Enterobacter cloacae; assay: Antibacterial activity against Enterobacter cloacae 17-4 assessed as reduction in bacterial growth
[14] = tested on: Escherichia coli; assay: Antibacterial activity against ESBLs positive Carbapenem-sensitive Escherichia coli 17-21 assessed as reduction in bacterial growth
[15] = tested on: Klebsiella aerogenes; assay: Antibacterial activity against Enterobacter aerogenes 17-2 assessed as reduction in bacterial growth
[16] = tested on: Escherichia coli; assay: Antibacterial activity against ESBLs positive Carbapenem-sensitive Escherichia coli 17-8 assessed as reduction in bacterial growth
[17] = tested on: Klebsiella aerogenes; assay: Antibacterial activity against Enterobacter aerogenes 15-3 assessed as reduction in bacterial growth
[18] = tested on: Klebsiella aerogenes; assay: Antibacterial activity against Enterobacter aerogenes 15-5 assessed as reduction in bacterial growth
[19] = tested on: Enterobacter cloacae; assay: Antibacterial activity against Enterobacter cloacae 17-8 assessed as reduction in bacterial growth
[20] = tested on: Klebsiella pneumoniae; assay: Antibacterial activity against ESBLs negative Carbapenem-sensitive Klebsiella pneumoniae 17-16 assessed as reduction in bacterial growth
[21] = tested on: Enterobacter cloacae; assay: Antibacterial activity against Enterobacter cloacae 17-10 assessed as reduction in bacterial growth
[22] = tested on: Escherichia coli; assay: Antibacterial activity against ESBLs positive Carbapenem-sensitive Escherichia coli 17-3 assessed as reduction in bacterial growth
[23] = tested on: Klebsiella pneumoniae; assay: Antibacterial activity against Carbapenem- resistant Klebsiella pneumoniae KR 15-10 assessed as reduction in bacterial growth
[24] = tested on: Acinetobacter baumannii; assay: Antibacterial activity against Acinetobacter baumannii NCTC 13304 assessed as reduction in bacterial growth
[25] = tested on: Escherichia coli; assay: Antibacterial activity against ESBLs positive Carbapenem-sensitive Escherichia coli 17-10 assessed as reduction in bacterial growth
[26] = tested on: Pseudomonas aeruginosa; assay: Antibacterial activity against Carbapenem- resistant Pseudomonas aeruginosa 17-8 assessed as reduction in bacterial growth
[27] = tested on: Klebsiella aerogenes; assay: Antibacterial activity against Enterobacter aerogenes 17-5 assessed as reduction in bacterial growth
[28] = tested on: Klebsiella pneumoniae; assay: Antibacterial activity against Carbapenem- sensitive Klebsiella pneumoniae 17-3 overexpressing extended spectrum beta-lactamases assessed as reduction in bacterial growth
[29] = tested on: Klebsiella aerogenes; assay: Antibacterial activity against Enterobacter aerogenes 15-7 assessed as reduction in bacterial growth
[30] = tested on: Klebsiella pneumoniae; assay: Antibacterial activity against Carbapenem- sensitive Klebsiella pneumoniae 17-12 overexpressing extended spectrum beta-lactamases assessed as reduction in bacterial growth
[31] = tested on: Klebsiella pneumoniae; assay: Antibacterial activity against Carbapenem- resistant Klebsiella pneumoniae KR 15-9 assessed as reduction in bacterial growth
[32] = tested on: Pseudomonas aeruginosa; assay: Antibacterial activity against Carbapenem- resistant Pseudomonas aeruginosa 17-5 assessed as reduction in bacterial growth
[33] = tested on: Acinetobacter baumannii; assay: Antibacterial activity against Carbapenem- resistant Acinetobacter baumannii 17-13 assessed as reduction in bacterial growth
[34] = tested on: Pseudomonas aeruginosa; assay: Antibacterial activity against Carbapenem- resistant Pseudomonas aeruginosa 17-1 assessed as reduction in bacterial growth
[35] = tested on: Klebsiella pneumoniae; assay: Antibacterial activity against Carbapenem- sensitive Klebsiella pneumoniae 17-13 overexpressing extended spectrum beta-lactamases assessed as reduction in bacterial growth
[36] = tested on: Escherichia coli; assay: Antibacterial activity against ESBLs positive Carbapenem-sensitive Escherichia coli 17-14 assessed as reduction in bacterial growth
[37] = tested on: Klebsiella pneumoniae; assay: Antibacterial activity against Carbapenem- sensitive Klebsiella pneumoniae 17-11 overexpressing extended spectrum beta-lactamases assessed as reduction in bacterial growth
[38] = tested on: Acinetobacter baumannii; assay: Antibacterial activity against Carbapenem- resistant Acinetobacter baumannii 17-3 assessed as reduction in bacterial growth
[39] = tested on: Escherichia coli; assay: Antibacterial activity against ESBLs positive Carbapenem-sensitive Escherichia coli 17-6 assessed as reduction in bacterial growth
[40] = tested on: Escherichia coli; assay: Antibacterial activity against ESBLs positive Carbapenem-sensitive Escherichia coli 17-2 assessed as reduction in bacterial growth
[41] = tested on: Acinetobacter baumannii; assay: Antibacterial activity against Carbapenem- resistant Acinetobacter baumannii 17-5 assessed as reduction in bacterial growth
[42] = tested on: Escherichia coli; assay: Antibacterial activity against ESBLs negative Carbapenem-sensitive Escherichia coli 17-7 assessed as reduction in bacterial growth
[43] = tested on: Escherichia coli; assay: Antibacterial activity against Escherichia coli ATCC 25922 assessed as reduction in bacterial growth
[44] = tested on: Klebsiella pneumoniae; assay: Antibacterial activity against Carbapenem- resistant Klebsiella pneumoniae KR 15-13 assessed as reduction in bacterial growth
[45] = tested on: Acinetobacter baumannii; assay: Antibacterial activity against Carbapenem- resistant Acinetobacter baumannii 17-8 assessed as reduction in bacterial growth
[46] = tested on: Klebsiella pneumoniae; assay: Antibacterial activity against Carbapenem- sensitive Klebsiella pneumoniae 17-2 overexpressing extended spectrum beta-lactamases assessed as reduction in bacterial growth
[47] = tested on: Klebsiella aerogenes; assay: Antibacterial activity against Enterobacter aerogenes 15-6 assessed as reduction in bacterial growth
[48] = tested on: Pseudomonas aeruginosa; assay: Antibacterial activity against Carbapenem- sensitive Pseudomonas aeruginosa 17-22 assessed as reduction in bacterial growth
[49] = tested on: Enterobacter cloacae; assay: Antibacterial activity against Enterobacter cloacae 17-9 assessed as reduction in bacterial growth
[50] = tested on: Klebsiella pneumoniae; assay: Antibacterial activity against Carbapenem- sensitive Klebsiella pneumoniae 17-1 overexpressing extended spectrum beta-lactamases assessed as reduction in bacterial growth
[51] = tested on: Klebsiella pneumoniae; assay: Antibacterial activity against ESBLs negative Carbapenem-sensitive Klebsiella pneumoniae 17-18 assessed as reduction in bacterial growth
[52] = tested on: Klebsiella pneumoniae; assay: Antibacterial activity against Carbapenem- sensitive Klebsiella pneumoniae 17-8 overexpressing extended spectrum beta-lactamases assessed as reduction in bacterial growth
[53] = tested on: Escherichia coli; assay: Antibacterial activity against ESBLs positive Carbapenem-sensitive Escherichia coli 17-17 assessed as reduction in bacterial growth
[54] = tested on: Klebsiella pneumoniae; assay: Antibacterial activity against Carbapenem- resistant Klebsiella pneumoniae KR 15-12 assessed as reduction in bacterial growth

## Nc1nc(/C(=N/OCc2cc(=O)c(O)cn2O)C(=O)N[C@@H]2C(=O)N3C(C(=O)O)=CCS[C@H]23)cs1
[1]
  MIC: > 64 mg/L
[2]
  MIC: 16 mg/L (≈ 31.5 µM)
[3]
  MIC: > 64 mg/L
[4]
  MIC: > 64 mg/L
[5]
  MIC: > 64 mg/L
[6]
  MIC: > 64 mg/L
[7]
  MIC: > 64 mg/L
[8]
  MIC: 2 mg/L (≈ 3.93 µM)
[9]
  MIC: > 64 mg/L
[10]
  MIC: > 64 mg/L
[11]
  MIC: 0.06 mg/L (≈ 0.118 µM)
[12]
  MIC: > 64 mg/L
[13]
  MIC: 1 mg/L (≈ 1.97 µM)
[14]
  MIC: 64 mg/L (≈ 126 µM)
[15]
  MIC: 64 mg/L (≈ 126 µM)
[16]
  MIC: 16 mg/L (≈ 31.5 µM)
[17]
  MIC: > 64 mg/L
[18]
  MIC: 8 mg/L (≈ 15.7 µM)
[19]
  MIC: 16 mg/L (≈ 31.5 µM)
[20]
  MIC: 0.5 mg/L (≈ 0.983 µM)
[21]
  MIC: 1 mg/L (≈ 1.97 µM)
[22]
  MIC: 2 mg/L (≈ 3.93 µM)
[23]
  MIC: > 64 mg/L
[24]
  MIC: > 64 mg/L
[25]
  MIC: 4 mg/L (≈ 7.87 µM)
[26]
  MIC: 32 mg/L (≈ 62.9 µM)
[27]
  MIC: 64 mg/L (≈ 126 µM)
[28]
  MIC: > 64 mg/L
[29]
  MIC: 4 mg/L (≈ 7.87 µM)
[30]
  MIC: 1 mg/L (≈ 1.97 µM)
[31]
  MIC: > 64 mg/L
[32]
  MIC: 64 mg/L (≈ 126 µM)
[33]
  MIC: > 64 mg/L
[34]
  MIC: 32 mg/L (≈ 62.9 µM)
[35]
  MIC: 1 mg/L (≈ 1.97 µM)
[36]
  MIC: 64 mg/L (≈ 126 µM)
[37]
  MIC: > 64 mg/L
[38]
  MIC: > 64 mg/L
[39]
  MIC: 32 mg/L (≈ 62.9 µM)
[40]
  MIC: 2 mg/L (≈ 3.93 µM)
[41]
  MIC: > 64 mg/L
[42]
  MIC: 2 mg/L (≈ 3.93 µM)
[43]
  MIC: 0.5 mg/L (≈ 0.983 µM)
[44]
  MIC: > 64 mg/L
[45]
  MIC: > 64 mg/L
[46]
  MIC: 2 mg/L (≈ 3.93 µM)
[47]
  MIC: 16 mg/L (≈ 31.5 µM)
[48]
  MIC: 1 mg/L (≈ 1.97 µM)
[49]
  MIC: 8 mg/L (≈ 15.7 µM)
[50]
  MIC: 64 mg/L (≈ 126 µM)
[51]
  MIC: ≤ 0.03 mg/L
[52]
  MIC: > 64 mg/L
[53]
  MIC: > 64 mg/L
[54]
  MIC: > 64 mg/L
